IC50 data for ten compounds are collected here from US9636418B2 (priority 2013, dated 2017).

SMILES strings stand for the structures.

The target in one assay is hNav1.7 (Homo sapiens, UniProt Q15858). Put plainly: cell-based. Type of assay: cell-based. The conditions noted are these: PatchXpress, tonic block; read-out: PX hNav1.7 Tonic IC50.
Chain of hNav1.7 (Q15858 whole entry): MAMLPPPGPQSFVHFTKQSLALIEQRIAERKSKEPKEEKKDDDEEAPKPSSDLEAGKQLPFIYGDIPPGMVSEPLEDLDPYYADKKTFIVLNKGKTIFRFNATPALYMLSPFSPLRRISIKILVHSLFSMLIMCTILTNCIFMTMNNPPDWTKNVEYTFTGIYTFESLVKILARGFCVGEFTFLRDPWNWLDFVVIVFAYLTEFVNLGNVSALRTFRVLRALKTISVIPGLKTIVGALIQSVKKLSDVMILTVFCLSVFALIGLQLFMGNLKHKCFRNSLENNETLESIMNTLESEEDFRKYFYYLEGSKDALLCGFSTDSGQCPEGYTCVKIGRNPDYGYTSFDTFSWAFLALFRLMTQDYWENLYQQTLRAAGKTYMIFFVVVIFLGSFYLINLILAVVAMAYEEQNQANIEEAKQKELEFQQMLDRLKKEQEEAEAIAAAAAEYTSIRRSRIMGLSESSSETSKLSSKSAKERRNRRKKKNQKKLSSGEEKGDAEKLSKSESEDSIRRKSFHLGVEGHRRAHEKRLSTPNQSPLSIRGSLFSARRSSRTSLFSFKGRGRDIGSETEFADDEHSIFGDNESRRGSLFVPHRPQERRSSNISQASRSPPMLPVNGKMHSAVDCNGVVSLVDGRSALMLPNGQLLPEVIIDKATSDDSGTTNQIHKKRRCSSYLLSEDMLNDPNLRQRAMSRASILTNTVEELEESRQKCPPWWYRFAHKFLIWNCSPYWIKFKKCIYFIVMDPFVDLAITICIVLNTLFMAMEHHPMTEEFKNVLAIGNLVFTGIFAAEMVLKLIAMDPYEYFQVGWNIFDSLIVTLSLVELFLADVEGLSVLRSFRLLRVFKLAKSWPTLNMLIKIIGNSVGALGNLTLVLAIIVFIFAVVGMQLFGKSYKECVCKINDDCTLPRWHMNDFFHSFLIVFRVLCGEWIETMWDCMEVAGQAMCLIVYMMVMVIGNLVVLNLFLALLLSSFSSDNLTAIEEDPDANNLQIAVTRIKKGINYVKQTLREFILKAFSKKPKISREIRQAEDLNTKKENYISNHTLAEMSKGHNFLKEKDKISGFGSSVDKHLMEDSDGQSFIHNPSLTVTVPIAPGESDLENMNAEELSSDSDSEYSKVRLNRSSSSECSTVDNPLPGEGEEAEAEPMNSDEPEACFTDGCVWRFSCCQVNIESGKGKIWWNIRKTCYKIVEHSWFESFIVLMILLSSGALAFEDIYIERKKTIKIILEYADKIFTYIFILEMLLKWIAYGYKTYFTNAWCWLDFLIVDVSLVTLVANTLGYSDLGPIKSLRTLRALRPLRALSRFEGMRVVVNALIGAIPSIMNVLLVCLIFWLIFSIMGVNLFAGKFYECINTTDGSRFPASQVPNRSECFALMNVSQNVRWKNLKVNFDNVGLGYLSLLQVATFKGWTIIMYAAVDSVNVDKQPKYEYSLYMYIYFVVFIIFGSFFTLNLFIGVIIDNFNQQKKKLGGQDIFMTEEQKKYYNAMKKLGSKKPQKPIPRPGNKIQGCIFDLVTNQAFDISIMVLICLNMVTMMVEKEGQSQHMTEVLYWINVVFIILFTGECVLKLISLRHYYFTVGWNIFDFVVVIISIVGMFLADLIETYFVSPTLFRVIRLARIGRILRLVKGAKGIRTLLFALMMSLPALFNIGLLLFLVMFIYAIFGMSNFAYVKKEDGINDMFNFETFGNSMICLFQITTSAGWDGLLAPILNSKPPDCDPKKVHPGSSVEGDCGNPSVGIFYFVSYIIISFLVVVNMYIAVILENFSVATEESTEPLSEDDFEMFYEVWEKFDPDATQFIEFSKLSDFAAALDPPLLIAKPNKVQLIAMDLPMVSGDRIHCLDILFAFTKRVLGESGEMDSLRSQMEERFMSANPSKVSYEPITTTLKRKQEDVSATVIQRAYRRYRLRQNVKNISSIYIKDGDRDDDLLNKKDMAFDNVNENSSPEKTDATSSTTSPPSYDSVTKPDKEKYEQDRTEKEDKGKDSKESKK
A word on the IC50: it is the concentration that inhibits the measured activity by half. Consider `C#CC[C@H](N)C(=O)NCCCC[C@@H]1NC(=O)[C@H](CCCNC(=N)N)NC(=O)[C@H](CCCCN)NC(=O)[C@H](CO)NC(=O)[C@H](CC(=O)O)NC(=O)[C@@H]2CSSC[C@@H]3NC(=O)[C@H](CCC(=O)O)NC(=O)[C@H](CC(C)C)NC(=O)CNC(=O)[C@H](CCC(=O)O)NC(=O)[C@H](CSSC[C@H](NC(=O)[C@H](Cc4ccc(O)cc4)NC(=O)[C@@H](N)CCC)C(=O)N[C@@H](CCC(N)=O)C(=O)N[C@@H](CCCCN)C(=O)N[C@@H](Cc4c[nH]c5ccccc45)C(=O)N[C@@H](CCCC)C(=O)N[C@@H](Cc4c[nH]c5ccccc45)C(=O)N[C@@H]([C@@H](C)O)C(=O)N2)NC(=O)[C@H](CSSC[C@@H](C(=O)N[C@@H](CCCNC(=N)N)C(=O)N[C@@H](CCCCN)C(=O)N[C@@H](Cc2ccc(O)cc2)C(=O)N[C@H](C(N)=O)[C@@H](C)CC)NC(=O)[C@H](Cc2c[nH]c4ccccc24)NC(=O)[C@H](CC(C)C)NC(=O)[C@H](CCCCN)NC3=O)NC1=O` [compound 436], for which the IC50 was determined as 2.96 nM. Same read-out and setting: the result for `C#CC[C@H](N)C(=O)NCCCC[C@@H]1NC(=O)[C@H](CCCNC(=N)N)NC(=O)[C@H](CCCCN)NC(=O)[C@H](CO)NC(=O)[C@H](CC(=O)O)NC(=O)[C@@H]2CSSC[C@@H]3NC(=O)[C@H](CCC(=O)O)NC(=O)[C@H](CC(C)C)NC(=O)CNC(=O)[C@H](CCC(=O)O)NC(=O)[C@H](CSSC[C@H](NC(=O)[C@H](Cc4ccc(O)cc4)NC(=O)[C@@H](N)CCC)C(=O)N[C@@H](CCC(N)=O)C(=O)N[C@@H](CCCCN)C(=O)N[C@@H](Cc4c[nH]c5ccccc45)C(=O)N[C@@H](CCCC)C(=O)N[C@@H](Cc4c[nH]c5ccccc45)C(=O)N[C@@H]([C@@H](C)O)C(=O)N2)NC(=O)[C@H](CSSC[C@@H](C(=O)N[C@@H](CCCNC(=N)N)C(=O)N[C@@H](CCCCN)C(=O)N[C@H](C(=O)N[C@@H](Cc2c[nH]c4ccccc24)C(N)=O)[C@@H](C)CC)NC(=O)[C@H](Cc2c[nH]c4ccccc24)NC(=O)[C@H](CC(C)C)NC(=O)[C@H](CCCCN)NC3=O)NC1=O` [compound 437] reads 9.59 nM.

Still in this assay, the particulars now being: PatchXpress; * = at high concentrations compound would wash off slowly or not at all; read-out: PX hNav1.7 Tonic IC50.
With `CCCC[C@@H]1NC(=O)[C@H](Cc2c[nH]c3ccccc23)NC(=O)[C@H](CCCCN)NC(=O)[C@H](CCC(N)=O)NC(=O)[C@@H](NC(=O)[C@H](Cc2ccc(O)cc2)NC(=O)[C@H](C)N)CSSC[C@@H]2NC(=O)[C@@H]3CSSC[C@@H](C(=O)N[C@@H](CCCNC(=N)N)C(=O)N[C@@H](CCCCN)C(=O)N[C@H](C(=O)N[C@H](C(N)=O)[C@@H](C)CC)[C@@H](C)CC)NC(=O)[C@H](Cc4c[nH]c5ccccc45)NC(=O)[C@H](CC(C)C)NC(=O)[C@H](CCCCN)NC(=O)[C@H](CSSC[C@H](NC(=O)[C@H]([C@@H](C)O)NC(=O)[C@H](Cc4c[nH]c5ccccc45)NC1=O)C(=O)N[C@@H](CC(=O)O)C(=O)N[C@@H](CO)C(=O)N[C@@H](CCCCN)C(=O)N[C@@H](CCCNC(=N)N)C(=O)N[C@@H](C)C(=O)N3)NC(=O)[C@H](CCCNC(=N)N)NC(=O)[C@H](CC(C)C)NC(=O)CNC(=O)[C@H](CCC(=O)O)NC2=O` [compound 357], the 50% inhibitory concentration (IC50) amounted to 0.307 nM. The same measure, in the same setting: the result for `CCCC[C@@H]1NC(=O)[C@H](Cc2c[nH]c3ccccc23)NC(=O)[C@H](CCCCN)NC(=O)[C@H](CCC(N)=O)NC(=O)[C@@H](NC(=O)[C@H](Cc2ccc(O)cc2)NC(=O)[C@@H](N)Cc2ccccc2)CSSC[C@@H]2NC(=O)[C@@H]3CSSC[C@@H](C(=O)N[C@@H](CCCNC(=N)N)C(=O)N[C@@H](CCCCN)C(=O)N[C@H](C(=O)N[C@H](C(N)=O)[C@@H](C)CC)[C@@H](C)CC)NC(=O)[C@H](Cc4c[nH]c5ccccc45)NC(=O)[C@H](CC(C)C)NC(=O)[C@H](CCCCN)NC(=O)[C@H](CSSC[C@H](NC(=O)[C@H]([C@@H](C)O)NC(=O)[C@H](Cc4c[nH]c5ccccc45)NC1=O)C(=O)N[C@@H](CC(=O)O)C(=O)N[C@@H](CO)C(=O)N[C@@H](CCCCN)C(=O)N[C@@H](CCCNC(=N)N)C(=O)N[C@@H](C)C(=O)N3)NC(=O)[C@H](CCCNC(=N)N)NC(=O)[C@H](CC(C)C)NC(=O)CNC(=O)[C@H](CCC(=O)O)NC2=O` [compound 358] reads 0.493 nM. The same measure, in the same setting: the result for `CCCC[C@@H]1NC(=O)[C@H](Cc2c[nH]c3ccccc23)NC(=O)[C@H](CCCCN)NC(=O)[C@H](CCC(N)=O)NC(=O)[C@@H](NC(=O)[C@H](Cc2ccc(O)cc2)NC(=O)CN)CSSC[C@@H]2NC(=O)[C@@H]3CSSC[C@@H](C(=O)N[C@@H](CCCNC(=N)N)C(=O)N[C@@H](CCCCN)C(=O)N[C@H](C(=O)N[C@H](C(N)=O)[C@@H](C)CC)[C@@H](C)CC)NC(=O)[C@H](Cc4c[nH]c5ccccc45)NC(=O)[C@H](CC(C)C)NC(=O)[C@H](CCCCN)NC(=O)[C@H](CSSC[C@H](NC(=O)[C@H]([C@@H](C)O)NC(=O)[C@H](Cc4c[nH]c5ccccc45)NC1=O)C(=O)N[C@@H](CC(=O)O)C(=O)N[C@@H](CO)C(=O)N[C@@H](CCCCN)C(=O)N[C@@H](CCCNC(=N)N)C(=O)N[C@@H](C)C(=O)N3)NC(=O)[C@H](CCCNC(=N)N)NC(=O)[C@H](CC(C)C)NC(=O)CNC(=O)[C@H](CCC(=O)O)NC2=O` [compound 359] reads 0.384 nM; that for `CCCC[C@@H]1NC(=O)[C@H](Cc2c[nH]c3ccccc23)NC(=O)[C@H](CCCCN)NC(=O)[C@H](CCC(N)=O)NC(=O)[C@@H](NC(=O)[C@H](Cc2ccc(O)cc2)NC(=O)[C@@H](N)[C@@H](C)CC)CSSC[C@@H]2NC(=O)[C@@H]3CSSC[C@@H](C(=O)N[C@@H](CCCNC(=N)N)C(=O)N[C@@H](CCCCN)C(=O)N[C@H](C(=O)N[C@H](C(N)=O)[C@@H](C)CC)[C@@H](C)CC)NC(=O)[C@H](Cc4c[nH]c5ccccc45)NC(=O)[C@H](CC(C)C)NC(=O)[C@H](CCCCN)NC(=O)[C@H](CSSC[C@H](NC(=O)[C@H]([C@@H](C)O)NC(=O)[C@H](Cc4c[nH]c5ccccc45)NC1=O)C(=O)N[C@@H](CC(=O)O)C(=O)N[C@@H](CO)C(=O)N[C@@H](CCCCN)C(=O)N[C@@H](CCCNC(=N)N)C(=O)N[C@@H](C)C(=O)N3)NC(=O)[C@H](CCCNC(=N)N)NC(=O)[C@H](CC(C)C)NC(=O)CNC(=O)[C@H](CCC(=O)O)NC2=O` [compound 360], 0.519 nM.

On to `CCCC[C@@H]1NC(=O)[C@H](Cc2c[nH]c3ccccc23)NC(=O)[C@H](CCCCN)NC(=O)[C@H](CCC(N)=O)NC(=O)[C@@H](NC(=O)[C@H](Cc2ccc(O)cc2)NC(=O)[C@@H]2CCCN2)CSSC[C@@H]2NC(=O)[C@@H]3CSSC[C@@H](C(=O)N[C@@H](CCCNC(=N)N)C(=O)N[C@@H](CCCCN)C(=O)N[C@H](C(=O)N[C@H](C(N)=O)[C@@H](C)CC)[C@@H](C)CC)NC(=O)[C@H](Cc4c[nH]c5ccccc45)NC(=O)[C@H](CC(C)C)NC(=O)[C@H](CCCCN)NC(=O)[C@H](CSSC[C@H](NC(=O)[C@H]([C@@H](C)O)NC(=O)[C@H](Cc4c[nH]c5ccccc45)NC1=O)C(=O)N[C@@H](CC(=O)O)C(=O)N[C@@H](CO)C(=O)N[C@@H](CCCCN)C(=O)N[C@@H](CCCNC(=N)N)C(=O)N[C@@H](C)C(=O)N3)NC(=O)[C@H](CCCNC(=N)N)NC(=O)[C@H](CC(C)C)NC(=O)CNC(=O)[C@H](CCC(=O)O)NC2=O` [compound 362], for which the IC50 turned out to be 0.372 nM. Same read-out and setting: the result for `CCCC[C@@H]1NC(=O)[C@H](Cc2c[nH]c3ccccc23)NC(=O)[C@H](CCCCN)NC(=O)[C@H](CCC(N)=O)NC(=O)[C@@H](NC(=O)[C@H](Cc2ccc(O)cc2)NC(=O)[C@@H](N)C(C)C)CSSC[C@@H]2NC(=O)[C@@H]3CSSC[C@@H](C(=O)N[C@@H](CCCNC(=N)N)C(=O)N[C@@H](CCCCN)C(=O)N[C@H](C(=O)N[C@H](C(N)=O)[C@@H](C)CC)[C@@H](C)CC)NC(=O)[C@H](Cc4c[nH]c5ccccc45)NC(=O)[C@H](CC(C)C)NC(=O)[C@H](CCCCN)NC(=O)[C@H](CSSC[C@H](NC(=O)[C@H]([C@@H](C)O)NC(=O)[C@H](Cc4c[nH]c5ccccc45)NC1=O)C(=O)N[C@@H](CC(=O)O)C(=O)N[C@@H](CO)C(=O)N[C@@H](CCCCN)C(=O)N[C@@H](CCCNC(=N)N)C(=O)N[C@@H](C)C(=O)N3)NC(=O)[C@H](CCCNC(=N)N)NC(=O)[C@H](CC(C)C)NC(=O)CNC(=O)[C@H](CCC(=O)O)NC2=O` [compound 363] reads 0.551 nM.

Take `CCCC[C@@H]1NC(=O)[C@H](Cc2c[nH]c3ccccc23)NC(=O)[C@H](CCCCN)NC(=O)[C@H](CCC(N)=O)NC(=O)[C@@H](NC(=O)[C@H](Cc2ccc(O)cc2)NC(=O)[C@@H](N)Cc2ccc(O)cc2)CSSC[C@@H]2NC(=O)[C@@H]3CSSC[C@@H](C(=O)N[C@@H](CCCNC(=N)N)C(=O)N[C@@H](CCCCN)C(=O)N[C@H](C(=O)N[C@H](C(N)=O)[C@@H](C)CC)[C@@H](C)CC)NC(=O)[C@H](Cc4c[nH]c5ccccc45)NC(=O)[C@H](CC(C)C)NC(=O)[C@H](CCCCN)NC(=O)[C@H](CSSC[C@H](NC(=O)[C@H]([C@@H](C)O)NC(=O)[C@H](Cc4c[nH]c5ccccc45)NC1=O)C(=O)N[C@@H](CC(=O)O)C(=O)N[C@@H](CO)C(=O)N[C@@H](CCCCN)C(=O)N[C@@H](CCCNC(=N)N)C(=O)N[C@@H](C)C(=O)N3)NC(=O)[C@H](CCCNC(=N)N)NC(=O)[C@H](CC(C)C)NC(=O)CNC(=O)[C@H](CCC(=O)O)NC2=O` [compound 365]: the half-inhibitory concentration (IC50) amounted to 0.372 nM. With `C=CC[C@H](N)C(=O)N[C@@H](Cc1ccc(O)cc1)C(=O)N[C@H]1CSSC[C@@H]2NC(=O)[C@@H]3CSSC[C@@H](C(=O)N[C@@H](CCCNC(=N)N)C(=O)N[C@@H](CCCCN)C(=O)N[C@H](C(=O)N[C@H](C(N)=O)[C@@H](C)CC)[C@@H](C)CC)NC(=O)[C@H](Cc4c[nH]c5ccccc45)NC(=O)[C@H](CC(C)C)NC(=O)[C@H](CCCCN)NC(=O)[C@H](CSSC[C@H](NC(=O)[C@H]([C@@H](C)O)NC(=O)[C@H](Cc4c[nH]c5ccccc45)NC(=O)[C@H](CCCC)NC(=O)[C@H](Cc4c[nH]c5ccccc45)NC(=O)[C@H](CCCCN)NC(=O)[C@H](CCC(N)=O)NC1=O)C(=O)N[C@@H](CC(=O)O)C(=O)N[C@@H](CO)C(=O)N[C@@H](CCCCN)C(=O)N[C@@H](CCCNC(=N)N)C(=O)N[C@@H](C)C(=O)N3)NC(=O)[C@H](CCCNC(=N)N)NC(=O)[C@H](CC(C)C)NC(=O)CNC(=O)[C@H](CCC(=O)O)NC2=O` [compound 367], the IC50 amounted to 0.488 nM.
